US11826344B2, “Composition, method of manufacture, and use of site-specific delivery of bruceolides for treatment of cancer and other diseases” (HOWARD UNIVERSITY, priority 2015, dated 2023)

Experiments:
Format in all cases: cell-based, human
[1] = system: Prostate cancer lines PC3 and LNCaP; experiment: Preliminary cytotoxicity study of brusatol solution on prostate cancer cell lines (FIG. 1); conditions: brusatol 1 nM to 10,000 nM, read from FIG. 1, read-out: IC50 (kills prostate cancer cells)
Protocol: (§1) The human prostate cancer cell lines, PC3 and LNCaP, were obtained from American Type Culture Collection (Manassas, VA). The PC3 and LNCaP cell lines were maintained in RPMI 1640 supplemented with 10% (v/v) FBS and 100 U/mL of penicillin G and 100 µg/mL of streptomycin sulfate. The cells were maintained as a monolayer in an incubator at 37° C. in a humid atmosphere with 5% CO2.

PC3 cells = experiment: Cell Titer 96 Non-Radioactive Cell Proliferation Assay, PC3 cells, 120 h; conditions: PC3, 10-500 nM
Protocol: as §1
(§2) PC3 (seeding density of 3,000 cells per well) and LNCaP (seeding density of 6,000 cells per well) were seeded in 96-well plates and allowed to attach for 24 h. […] Cell viability was assessed at 120 h after treatment. The Cell Titer 96® Non-Radioactive Cell Proliferation Assay manufactured by Promega Corporation was employed for this study. Results are presented as percent viability normalized to controls and represent the mean±SD of six replicates per concentration tested. Results were analyzed using One-way Analysis of Variance (ANOVA) and Student's t-test with the aid of SPSS® statistical software. Differences were considered significant at p<0.05.
(§3) The toxicity of the brusatol-loaded nanoparticles in prostate cancer cell lines was evaluated over 120 hours using the Cell Titer 96® Non-Radioactive Cell Proliferation Assay (Promega Corp.). LNCaP cells are androgen receptor dependent while PC-3 cells are androgen independent. […]

LNCaP cells [2] = experiment: Cell Titer 96 Non-Radioactive Cell Proliferation Assay, LNCaP cells, 120 h; conditions: 10-500 nM
Protocol: as §1, §2, §3

LNCaP cells [3] = experiment: Cell cycle analysis by propidium iodide flow cytometry; conditions: 50 nM brusatol, 120 h (day 5)
Protocol: LNCaP cells (seeding density of 40,000 cells per well) were seeded in triplicates in a 24-well plate and incubated for 48 hours. […] The experiment was done in triplicate. At the 120 h time point, cells were harvested and washed twice with cold PBS, fixed in 70% ethanol for 1 h at 4° C. The cells were then washed twice with PBS, and treated with ribonuclease followed by staining with propidium iodide. The stained cells were subjected to cell cycle analysis using the BD Accuri™ C6 flow cytometer (BD Biosciences, Ann Arbor, MI, USA). For each replicate, 20,000 events were recorded.

## Brusatol
[1]
  IC50: 1 to 100 nM
PC3 cells
  toxicity (in words): dose-dependent toxicity
LNCaP cells [2]
  toxicity (in words): dose-dependent toxicity
LNCaP cells [3]
  cell cycle effect: induces a G1 arrest
LNCaP cells [3]; listed as brusatol solution
  cell cycle effect: G1 arrest
